In ChEMBL document CHEMBL1671638, “Cloning, expression, and characterization of Babesia gibsoni dihydrofolate reductase-thymidylate synthase: inhibitory effect of antifolates on its catalytic activity and parasite proliferation” (Antimicrob Agents Chemother, 2008):
Active and inactive are the calls of the source. The rule behind the calls is not given here.

Columns and labels:
Babesia gibsoni [1] = assay: Antiparasitic activity against Babesia gibsoni infected in dog erythrocytes assessed as growth inhibition at 20 uM by Giemsa staining based microscopy; format: functional, organism-based
Babesia gibsoni [2] = assay: Antiparasitic activity against Babesia gibsoni infected in dog erythrocytes assessed as growth inhibition at 80 uM by Giemsa staining based microscopy; format: functional, organism-based
[3] = (§1) Inhibition of Babesia gibsoni Dihydrofolate reductase-thymidylate synthase expressed in Escherichia coli BL21
Babesia gibsoni [4] = assay: as §1
Babesia gibsoni [5] = assay: Antiparasitic activity against Babesia gibsoni infected in dog erythrocytes assessed as growth inhibition at 150 nM by Giemsa staining based microscopy; format: functional, organism-based
Babesia gibsoni [6] = assay: Antiparasitic activity against Babesia gibsoni infected in dog erythrocytes assessed as growth inhibition at 50 nM by Giemsa staining based microscopy; format: functional, organism-based

Row | IC50 [3] [µM] | inhibition (Babesia gibsoni [4]) | Compound | Activity (Babesia gibsoni [1]) | Activity (Babesia gibsoni [2]) | inhibition (Babesia gibsoni [5]) | inhibition (Babesia gibsoni [6])
1 | 0.055 | Dose-dependent effect | COc1cc(Cc2cnc(N)nc2N)cc(OC)c1OC [TRIMETHOPRIM] | Active | Active |  | 
2 | 0.05 | Dose-dependent effect | CCc1nc(N)nc(N)c1-c1ccc(Cl)cc1 [PYRIMETHAMINE] | Active | Active |  | 
3 | 0.0686 | Dose-dependent effect | CN(Cc1cnc2nc(N)nc(N)c2n1)c1ccc(C(=O)N[C@@H](CCC(=O)O)C(=O)O)cc1 [METHOTREXATE] |  |  | Active | Active
